The values that follow come from patent publication EP0207358A2, “Growth-promoting agent” (BAYER AG, priority 1985, dated 1987).

The subject of this experiment is Weibliche Laborratten. The experiment is described as follows: Rat feeding trial (Ratten-Fütterungsversuch). The following applies: female SPF Wistar rats 90-110 g; active substance mixed into standard rat feed ad lib; 13-day trial; compared with control group on feed without active substance. It counts as in vivo. The source says:
Weibliche Laborratten 90-110 g schwer vom Typ SPF Wistar (Züchtung Hagemann) werden ad lib mit Standard-Rattenfutter, das mit der gewünschten Menge Wirkstoff versetzt ist, gefüttert. Jeder Versuchsansatz wird mit Futter der identischen Charge durchgeführt, so daß Unterschiede in der Zusammensetzung des Futters die Vergleichbarkeit der Ergebnisse nicht beeinträchtigen können.
Die Ratten erhalten Wasser ad lib.
Jeweils 12 Ratten bilden eine Versuchsgruppe und werden mit Futter, das mit der gewünschten Menge Wirkstoff versetzt ist, gefüttert. Eine Kontrollgruppe erhält Futter ohne Wirkstoff. Das durchschnittliche Körpergewicht sowie die Streuung in den Körpergewichten der Ratten ist in jeder Versuchsgruppe gleich, so daß eine Vergleichbarkeit der Versuchsgruppen untereinander gewährleistet ist.
Gewichtszunahme und Futterverbrauch werden während des 13-tägigen Versuches bestimmt.
Turning to `CCOC(=O)c1c(NC(=O)N[C@@H](CCSC)C(=O)OC)sc(-c2ccccc2)c1C` [Beispiel 1], the “Gewichtszunahmen im Vergleich zur Kontrolle” value is listed as “deutliche Gewichtszunahmen”.
Consider `CC[C@H](C)[C@H](NC(=O)Nc1cccc2ccccc12)C(=O)O` [Beispiel 2], for which the “Gewichtszunahmen im Vergleich zur Kontrolle” value is “deutliche Gewichtszunahmen”.
Next, `COC(=O)[C@H](Cc1c[nH]c2ccccc12)NC(=O)Nc1cccc2ccccc12` [Beispiel 3]: “deutliche Gewichtszunahmen”.
